Consider two molecules from PMC9710854 (Chemical communications (Cambridge, England), 2022).

A short description of data set [1]: Experimental partition coefficient. The data set is classed as physicochemical.
The nature of data set [2]: Plasma protein binding estimated by an HPLC-based method. The class given is in vitro ADME.
Data set [3] deals with USP7 catalytic domain (Homo sapiens, UniProt Q93009). The experiment in a line: USP7 inhibition with isolated USP7 catalytic domain using Ub-AMC as a substrate. The data set is classed as biochemical.
Data set [4] deals with MM.1S cells. In words: Cell viability of MM.1S cells after 24 h treatment. The class given is cell-based.

Chain of USP7 catalytic domain (Q93009 214-521 limits assumed): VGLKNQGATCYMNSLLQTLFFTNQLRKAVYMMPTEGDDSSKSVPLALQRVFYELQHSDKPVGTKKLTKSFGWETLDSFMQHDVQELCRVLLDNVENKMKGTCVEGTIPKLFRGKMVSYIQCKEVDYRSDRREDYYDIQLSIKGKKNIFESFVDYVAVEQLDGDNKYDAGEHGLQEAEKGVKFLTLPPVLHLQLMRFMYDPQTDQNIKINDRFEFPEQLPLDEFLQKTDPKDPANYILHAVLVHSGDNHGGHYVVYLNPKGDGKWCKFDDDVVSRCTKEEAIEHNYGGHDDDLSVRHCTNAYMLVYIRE

Regarding `O=C(C[C@@H](C(F)F)n1ccc(F)n1)N1CCC(O)(Cn2cnc3c(cnn3-c3ccc(F)cc3)c2=O)CC1` [Compound 2, FT671], in data set [1], the logD – broadly, lipophilicity at a set pH, counting ionised and neutral species – is reported as 2.5. Besides, in data set [2] (plasma), the fraction unbound (usually free concentration divided by total concentration) is 0.1. The IC50 (as a rule, the point on the concentration scale where inhibition reaches its midpoint) in data set [3] was determined as 32 ± 7 nM. Further, in data set [4] (Homo sapiens, MM1.S, read-out: cell viability), the viability (usually a per cent measure of how many cells are alive, often set against a control) at 10 µM worked out at 41%.
Consider `C[C@H](CC(=O)N1CCC(O)(Cn2cnc3cc(NC(=O)CCN4CCN(C)CC4)ccc3c2=O)CC1)c1ccccc1` [Compound 3, XL188], for which the logD in data set [1] turned out to be 1.3. Besides, the PPB in data set [2] (plasma protein binding, estimated by an HPLC-based method) is on record as 87%. In addition, in data set [4] (remaining viability, MM.1S cells, 10 μM), the cell viability – broadly, a read-out of living cells in per cent, often relative to untreated cells – turned out to be 43%.
